In PubChem BioAssay (NCI):
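Cells were grown in 96-well plates and exposed to each compound for 48 hours at five concentrations; endpoints were interpolated linearly between bracketing concentrations, or set to the highest concentration if not reached. TGI: concentration producing complete growth inhibition.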

Assays:
Experiment in all cases: NCI-60 cell line screen, 48 h
RXF 393 renal = system: RXF 393 renal
DU-145 prostate = system: DU-145 prostate
SK-MEL-2 melanoma = system: SK-MEL-2 melanoma
LOX IMVI melanoma = system: LOX IMVI melanoma
MDA-MB-435 = system: MDA-MB-435
A549 NSCLC = system: A549 NSCLC
UACC-257 melanoma = system: UACC-257 melanoma
SF-268 CNS = system: SF-268 CNS
OVCAR-4 ovarian = system: OVCAR-4 ovarian
MDA-N = system: MDA-N
T-47D breast = system: T-47D breast
SF-539 CNS = system: SF-539 CNS
PC-3 prostate = system: PC-3 prostate
SNB-19 CNS = system: SNB-19 CNS
CCRF-CEM leukemia = system: CCRF-CEM leukemia
BT-549 breast = system: BT-549 breast
COLO 205 colon = system: COLO 205 colon
EKVX NSCLC = system: EKVX NSCLC
M14 melanoma = system: M14 melanoma
CAKI-1 renal = system: CAKI-1 renal
A498 renal = system: A498 renal
NCI-H522 lung = system: NCI-H522 lung
SK-OV-3 ovarian = system: SK-OV-3 ovarian
U251 CNS = system: U251 CNS
NCI-H226 lung = system: NCI-H226 lung
NCI-H460 lung = system: NCI-H460 lung
NCI/ADR-RES ovarian = system: NCI/ADR-RES ovarian
OVCAR-8 ovarian = system: OVCAR-8 ovarian
MCF7 breast = system: MCF7 breast
UO-31 renal = system: UO-31 renal
MOLT-4 leukemia = system: MOLT-4 leukemia
TK-10 renal = system: TK-10 renal
786-0 renal = system: 786-0 renal
HCT-15 colon = system: HCT-15 colon
SK-MEL-28 melanoma = system: SK-MEL-28 melanoma
MDA-MB-231 breast = system: MDA-MB-231 breast
SW-620 colon = system: SW-620 colon
IGROV1 ovarian = system: IGROV1 ovarian
KM12 colon = system: KM12 colon
ACHN renal = system: ACHN renal
HCT-116 colon = system: HCT-116 colon
HOP-92 NSCLC = system: HOP-92 NSCLC
NCI-H23 lung = system: NCI-H23 lung
SF-295 CNS = system: SF-295 CNS
HT29 colon = system: HT29 colon
OVCAR-5 ovarian = system: OVCAR-5 ovarian
HCC-2998 colon = system: HCC-2998 colon
OVCAR-3 ovarian = system: OVCAR-3 ovarian
RPMI-8226 leukemia = system: RPMI-8226 leukemia
SNB-75 CNS = system: SNB-75 CNS
K-562 leukemia = system: K-562 leukemia
HOP-62 NSCLC = system: HOP-62 NSCLC
UACC-62 melanoma = system: UACC-62 melanoma
HL-60(TB) leukemia = system: HL-60(TB) leukemia
SR leukemia = system: SR leukemia
MALME-3M melanoma = system: MALME-3M melanoma
SN12C renal = system: SN12C renal
SK-MEL-5 melanoma = system: SK-MEL-5 melanoma

Nc1c(C(=O)c2ccc(Cl)cc2)[nH]c(Nc2ccc(Cl)cc2)c1C(=S)Nc1ccccc1
TGI (RXF 393 renal): 7.45 µM
TGI (DU-145 prostate): 24.1 µM
TGI (SK-MEL-2 melanoma): 25.8 µM
TGI (LOX IMVI melanoma): 16.6 µM
TGI (MDA-MB-435): 20 µM
TGI (A549 NSCLC): 13.9 µM
TGI (UACC-257 melanoma): 31.8 µM
TGI (SF-268 CNS): 17.8 µM
TGI (OVCAR-4 ovarian): 5.14 µM
TGI (MDA-N): 21.5 µM
TGI (T-47D breast): > 100 µM
TGI (SF-539 CNS): 18.4 µM
TGI (PC-3 prostate): 41.2 µM
TGI (SNB-19 CNS): 21.8 µM
TGI (CCRF-CEM leukemia): > 100 µM
TGI (BT-549 breast): 8.02 µM
TGI (COLO 205 colon): 16.5 µM
TGI (EKVX NSCLC): 19.5 µM
TGI (M14 melanoma): 34.1 µM
TGI (CAKI-1 renal): 23.2 µM
TGI (A498 renal): 28.9 µM
TGI (NCI-H522 lung): 20.3 µM
TGI (SK-OV-3 ovarian): 19.3 µM
TGI (U251 CNS): 9.73 µM
TGI (NCI-H226 lung): 19.4 µM
TGI (NCI-H460 lung): 20.8 µM
TGI (NCI/ADR-RES ovarian): 13.3 µM
TGI (OVCAR-8 ovarian): 11 µM
TGI (MCF7 breast): 21.6 µM
TGI (UO-31 renal): 15.1 µM
TGI (MOLT-4 leukemia): 42.6 µM
TGI (TK-10 renal): 16.5 µM
TGI (786-0 renal): 9.41 µM
TGI (HCT-15 colon): 16.9 µM
TGI (SK-MEL-28 melanoma): 14.4 µM
TGI (MDA-MB-231 breast): 18.1 µM
TGI (SW-620 colon): 51.9 µM
TGI (IGROV1 ovarian): 17.3 µM
TGI (KM12 colon): 31.5 µM
TGI (ACHN renal): 5.08 µM
TGI (HCT-116 colon): 13.4 µM
TGI (HOP-92 NSCLC): 22.2 µM
TGI (NCI-H23 lung): 11.9 µM
TGI (SF-295 CNS): 5.87 µM
TGI (HT29 colon): 18 µM
TGI (OVCAR-5 ovarian): 27.3 µM
TGI (HCC-2998 colon): 7.7 µM
TGI (OVCAR-3 ovarian): 12.9 µM
TGI (RPMI-8226 leukemia): 56.3 µM
TGI (SNB-75 CNS): 6.6 µM
TGI (K-562 leukemia): 17.8 µM
TGI (HOP-62 NSCLC): 20.5 µM
TGI (UACC-62 melanoma): 27.1 µM
TGI (HL-60(TB) leukemia): > 100 µM
TGI (SR leukemia): 7.41 µM
TGI (MALME-3M melanoma): 36.1 µM
TGI (SN12C renal): 22.5 µM

[N-]=[N+]=CC(=O)OC1CCc2ccccc21 (stereo not given)
TGI (RXF 393 renal): > 100 µM
TGI (DU-145 prostate): 48.7 µM
TGI (SK-MEL-2 melanoma): > 100 µM
TGI (LOX IMVI melanoma): > 100 µM
TGI (MDA-MB-435): > 100 µM
TGI (UACC-257 melanoma): > 100 µM
TGI (SF-268 CNS): > 100 µM
TGI (OVCAR-4 ovarian): > 100 µM
TGI (MDA-N): > 100 µM
TGI (PC-3 prostate): > 100 µM
TGI (SNB-19 CNS): > 100 µM
TGI (BT-549 breast): > 100 µM
TGI (COLO 205 colon): > 100 µM
TGI (EKVX NSCLC): > 100 µM
TGI (CAKI-1 renal): 52.5 µM
TGI (A498 renal): > 100 µM
TGI (NCI-H522 lung): > 100 µM
TGI (SK-OV-3 ovarian): > 100 µM
TGI (U251 CNS): > 100 µM
TGI (NCI-H226 lung): > 100 µM
TGI (NCI-H460 lung): > 100 µM
TGI (MCF7 breast): > 100 µM
TGI (UO-31 renal): 29 µM
TGI (TK-10 renal): > 100 µM
TGI (786-0 renal): > 100 µM
TGI (HCT-15 colon): > 100 µM
TGI (SK-MEL-28 melanoma): > 100 µM
TGI (MDA-MB-231 breast): > 100 µM
TGI (SW-620 colon): > 100 µM
TGI (IGROV1 ovarian): > 100 µM
TGI (ACHN renal): 30.3 µM
TGI (HCT-116 colon): > 100 µM
TGI (HOP-92 NSCLC): > 100 µM
TGI (NCI-H23 lung): > 100 µM
TGI (SF-295 CNS): > 100 µM
TGI (HT29 colon): > 100 µM
TGI (OVCAR-5 ovarian): > 100 µM
TGI (SK-MEL-5 melanoma): > 100 µM
TGI (HCC-2998 colon): > 100 µM
TGI (OVCAR-3 ovarian): > 100 µM
TGI (RPMI-8226 leukemia): > 100 µM
TGI (K-562 leukemia): > 100 µM
TGI (HOP-62 NSCLC): > 100 µM
TGI (UACC-62 melanoma): > 100 µM
TGI (HL-60(TB) leukemia): > 100 µM
TGI (SR leukemia): > 100 µM
TGI (MALME-3M melanoma): > 100 µM
TGI (SN12C renal): > 100 µM
